Source: ChEMBL document CHEMBL3301361, “Experimental in vitro DMPK and physicochemical data on a set of publicly disclosed compounds”
Converted amounts (≈) assume the structure as drawn.

Key:
physchem [1] = conditions: octan-1-ol/water, pH 7.4, LogD7.4
physchem [2] = conditions: pH 7.4 buffer

COc1ccc(C(=O)N2CCC(C(=O)c3ccc(F)cc3)CC2)cc1
logD (physchem [1]): 2.92
solubility thermodynamic (physchem [2]): 21.4 µM (≈ 7.31 µg/mL)

O=C(c1ccc(F)cc1)C1CCN(C(=O)c2ccc(F)cc2)CC1
logD (physchem [1]): 2.9
solubility thermodynamic (physchem [2]): 30.9 µM (≈ 10.2 µg/mL)

CCn1c2ccccc2c2cc(NC(=O)N3CCOCC3)ccc21
logD (physchem [1]): 3.2
solubility thermodynamic (physchem [2]): 2.9 µM (≈ 0.938 µg/mL)

CS(=O)(=O)c1cccc(Nc2nccc(Nc3cccc4[nH]ncc34)n2)c1
logD (physchem [1]): 2.91
solubility thermodynamic (physchem [2]): 6.8 µM (≈ 2.59 µg/mL)

CS(=O)(=O)c1cccc(Nc2nccc(Nc3cccc4c3OCO4)n2)c1
logD (physchem [1]): 2.83
solubility thermodynamic (physchem [2]): 5.9 µM (≈ 2.27 µg/mL)

CS(=O)(=O)c1cccc(Nc2nccc(Nc3cccc4c3OCC4)n2)c1
logD (physchem [1]): 3
solubility thermodynamic (physchem [2]): 44.7 µM (≈ 17.1 µg/mL)

CS(=O)(=O)c1cccc(Nc2nccc(N(CC#N)c3c(Cl)ccc4c3OCO4)n2)c1
logD (physchem [1]): 3.16
solubility thermodynamic (physchem [2]): 1.3 µM (≈ 0.595 µg/mL)

c1cc(Nc2ccnc(Nc3cc(N4CCOCC4)cc(N4CCOCC4)c3)n2)c2cn[nH]c2c1
logD (physchem [1]): 3.05
solubility thermodynamic (physchem [2]): 2.5 µM (≈ 1.18 µg/mL)

Clc1ccc(-c2nnc3cccc(Cl)n23)c(Cl)c1
logD (physchem [1]): 2.88
solubility thermodynamic (physchem [2]): 52.5 µM (≈ 15.7 µg/mL)

O=C(c1scc2c1CCCC2)N1CCCCC1
logD (physchem [1]): 3.16
solubility thermodynamic (physchem [2]): 871 µM (≈ 217 µg/mL)

Cc1cccc(NS(=O)(=O)c2cccc3nonc23)c1
logD (physchem [1]): 3
solubility thermodynamic (physchem [2]): 81.3 µM (≈ 23.5 µg/mL)

Cc1cc2c(C)cc(=O)oc2c2c1NCCC2
logD (physchem [1]): 2.9
solubility thermodynamic (physchem [2]): 30.9 µM (≈ 7.08 µg/mL)

O=C(c1ccc(F)cc1)C1CCN(C(=O)NCc2ccccc2)CC1
logD (physchem [1]): 3.15
solubility thermodynamic (physchem [2]): 10 µM (≈ 3.4 µg/mL)

Cc1sc2ncnc(SCC(=O)N3CCCC3)c2c1C
logD (physchem [1]): 2.89
solubility thermodynamic (physchem [2]): 100 µM (≈ 30.7 µg/mL)

COc1ccc(C(=O)C2CCN(C(=O)c3ccc(F)cc3)CC2)cc1
logD (physchem [1]): 2.92
solubility thermodynamic (physchem [2]): 204 µM (≈ 69.7 µg/mL)

O=C(/C=C/Sc1nc[nH]n1)c1ccc(Cl)cc1
logD (physchem [1]): 3.1
solubility thermodynamic (physchem [2]): 35.5 µM (≈ 9.43 µg/mL)

OCCNCc1cc(Br)ccc1OCc1ccc(Cl)cc1
logD (physchem [1]): 2.98
solubility thermodynamic (physchem [2]): 229 µM (≈ 84.9 µg/mL)

O=C(CCN1CCCCC1)Nc1ccc(-c2cccn3c(=O)cc(N4CCOCC4)nc23)c2sc3ccccc3c12
logD (physchem [1]): 2.9
solubility thermodynamic (physchem [2]): 16.6 µM (≈ 9.42 µg/mL)

O=C(NC1CCCCC1)C1CCCN(S(=O)(=O)c2cccs2)C1 (stereo not given)
logD (physchem [1]): 2.93
solubility thermodynamic (physchem [2]): 4.2 µM (≈ 1.5 µg/mL)

CC(=O)Nc1cc(CN2C(=O)N(c3ccc(SC(F)(F)F)cc3)C(=O)C2(C)C)ccn1
logD (physchem [1]): 2.93
solubility thermodynamic (physchem [2]): 13.2 µM (≈ 5.97 µg/mL)

COc1ccc(C)c(N(C)c2ccnc(Nc3cc(N4CCOCC4)cc(N4CCOCC4)c3)n2)c1
logD (physchem [1]): 3.18
solubility thermodynamic (physchem [2]): 11.5 µM (≈ 5.64 µg/mL)

COc1cc(CO)cc(N(C)c2ccnc(Nc3cc(N4CCOCC4)cc(N4CCOCC4)c3)n2)c1
logD (physchem [1]): 3
solubility thermodynamic (physchem [2]): 195 µM (≈ 98.8 µg/mL)

Cc1ccc(CO)cc1N(C)c1ccnc(Nc2cc(CN3CCOCC3)cc(N3CCOCC3)c2)n1
logD (physchem [1]): 3
solubility thermodynamic (physchem [2]): 372 µM (≈ 187 µg/mL)

CC(C)OC(=O)N1CCC(Oc2ncnc3c2cnn3-c2ccc(S(C)(=O)=O)cc2F)CC1
logD (physchem [1]): 3
solubility thermodynamic (physchem [2]): 2.1 µM (≈ 1 µg/mL)

CC(=O)N1CCN(c2ccc(Nc3nccc(-c4cnc5ccccn45)n3)cc2)CC1
logD (physchem [1]): 2.82
solubility thermodynamic (physchem [2]): 8.5 µM (≈ 3.51 µg/mL)

COc1cc(N2CCN(C(C)=O)CC2)ccc1Nc1ncc(C)c(-c2cnc3ccccn23)n1
logD (physchem [1]): 2.9
solubility thermodynamic (physchem [2]): 5 µM (≈ 2.29 µg/mL)

COc1cc(N2CCN(C(C)=O)CC2)ccc1Nc1ncc(Cl)c(-c2cnc3c(CO)cccn23)n1
logD (physchem [1]): 3.1
solubility thermodynamic (physchem [2]): 0.5 µM (≈ 0.254 µg/mL)

COc1cc(N2CCN(C(C)=O)CC2)ccc1Nc1ncc(Cl)c(-c2cnc3cc(CO)ccn23)n1
logD (physchem [1]): 3.1
solubility thermodynamic (physchem [2]): 22.9 µM (≈ 11.6 µg/mL)

CN(C(=O)C1CCC1)C1CCN(CCC(c2ccccc2)c2ccccc2)CC1
logD (physchem [1]): 3.2
solubility thermodynamic (physchem [2]): 282 µM (≈ 110 µg/mL)

O=C(Nc1cccc(O)c1)c1ccc(OCCCN2CCCC2)cc1OCc1ccccc1
logD (physchem [1]): 3.07
solubility thermodynamic (physchem [2]): 6.6 µM (≈ 2.95 µg/mL)

CCOC(=O)c1ccc(OCC2CN(c3ccc(C)nn3)C2)cc1
logD (physchem [1]): 3.1
solubility thermodynamic (physchem [2]): 141 µM (≈ 46.3 µg/mL)

COc1cc2ncnc(Nc3cc(NC(=O)c4ccnc(N5CCOCC5)c4)ccc3C)c2cc1OCCN1CCOCC1
logD (physchem [1]): 3.19
solubility thermodynamic (physchem [2]): 66.1 µM (≈ 39.6 µg/mL)

Cc1ccc(NC(=O)c2ccnc(N3CCOCC3)c2)cc1Nc1ccnc(Cl)n1
logD (physchem [1]): 3.1
solubility thermodynamic (physchem [2]): 15.1 µM (≈ 6.42 µg/mL)

Cc1ccc(NC(=O)c2cccc(N3CCOCC3)c2)cc1NC(=O)c1ccc(OCc2ccncc2)cc1
logD (physchem [1]): 3.2
solubility thermodynamic (physchem [2]): 0.5 µM (≈ 0.261 µg/mL)

O=C(NC1CCCCC1)c1cccnc1Sc1ccccc1
logD (physchem [1]): 3.01
solubility thermodynamic (physchem [2]): 22.9 µM (≈ 7.15 µg/mL)

COc1cc2c(Nc3ccc(Br)cc3F)ncnc2cc1OC[C@@H]1CCCN(C)C1
logD (physchem [1]): 3.05
solubility thermodynamic (physchem [2]): 170 µM (≈ 80.7 µg/mL)

COc1cc2c(Nc3ncc(CC(=O)Nc4cccc(F)c4)s3)ncnc2cc1OCCCN1CCC(CO)CC1
logD (physchem [1]): 2.89
solubility thermodynamic (physchem [2]): 26.9 µM (≈ 15.6 µg/mL)

COc1ccc(NC(=O)c2nnc(Nc3ccccc3F)o2)cn1
logD (physchem [1]): 3.2
solubility thermodynamic (physchem [2]): 3.3 µM (≈ 1.09 µg/mL)

O=C(Nc1ccc(Oc2cccnc2)nc1)c1nnc(Nc2ccccc2F)o1
logD (physchem [1]): 3.1
solubility thermodynamic (physchem [2]): 77.6 µM (≈ 30.4 µg/mL)

O=C(Nc1ccc(N2CCOCC2)nc1)c1nnc(Nc2ccccc2)o1
logD (physchem [1]): 2.9
solubility thermodynamic (physchem [2]): 1.9 µM (≈ 0.696 µg/mL)
